Source: ChEMBL document CHEMBL2057091, “InCl3-catalysed synthesis of 2-aryl quinazolin-4(3H)-ones and 5-aryl pyrazolo[4,3-d]pyrimidin-7(6H)-ones and their evaluation as potential anticancer agents” (Bioorg Med Chem Lett, 2012)

Tests used:
[1] = tested on: K562; experiment: Antiproliferative activity against human K562 cells by MTT assay; assay type: functional, cell-based
[2] = tested on: COLO 205; experiment: Antiproliferative activity against human COLO205 cells by MTT assay; assay type: functional, cell-based
[3] = tested on: MDA-MB-231; experiment: Antiproliferative activity against human MDA-MB-231 cells by MTT assay; assay type: functional, cell-based
[4] = target: T1, NAD-dependent protein deacetylase sirtuin-1 (Homo sapiens) (UniProt Q96EB6); experiment: Inhibition of Sirt1 expressed in human U2OS cells assessed as acetylation of p53 at 10 uM; assay type: cell-based
T1 sequence (whole entry): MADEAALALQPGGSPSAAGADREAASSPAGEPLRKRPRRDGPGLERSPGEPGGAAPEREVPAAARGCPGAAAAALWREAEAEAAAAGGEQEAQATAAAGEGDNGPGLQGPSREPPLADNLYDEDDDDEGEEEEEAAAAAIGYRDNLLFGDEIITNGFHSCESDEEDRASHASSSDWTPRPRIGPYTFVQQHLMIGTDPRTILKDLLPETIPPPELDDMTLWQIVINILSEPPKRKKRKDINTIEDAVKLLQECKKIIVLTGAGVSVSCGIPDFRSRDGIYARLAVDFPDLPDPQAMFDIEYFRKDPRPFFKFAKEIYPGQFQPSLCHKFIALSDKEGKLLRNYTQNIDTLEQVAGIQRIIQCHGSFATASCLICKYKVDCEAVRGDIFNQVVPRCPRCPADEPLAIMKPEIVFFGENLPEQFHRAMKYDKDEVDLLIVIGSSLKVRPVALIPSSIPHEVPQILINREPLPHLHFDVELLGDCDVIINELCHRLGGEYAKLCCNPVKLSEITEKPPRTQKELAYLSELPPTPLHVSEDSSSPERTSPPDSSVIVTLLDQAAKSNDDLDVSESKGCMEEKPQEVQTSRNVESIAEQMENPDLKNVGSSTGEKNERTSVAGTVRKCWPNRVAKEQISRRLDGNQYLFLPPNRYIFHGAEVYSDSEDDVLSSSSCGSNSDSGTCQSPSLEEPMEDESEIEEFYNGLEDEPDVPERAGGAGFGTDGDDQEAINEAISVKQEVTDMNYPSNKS

IC50 ([1]; Homo sapiens, K562) [µM] | IC50 ([2]; Homo sapiens, COLO 205) [µM] | IC50 ([3]; Homo sapiens, MDA-MB-231) [µM] | inhibition [4] [%] | IC50 ([1]; k562) [µM] | IC50 ([2]; colo 205) [µM] | IC50 ([3]; mda-mb-231) [µM] | SMILES
21 | 9 | 44 | – | – | – | – | CCCc1nn(C)c2c(=O)[nH]c(-c3ccc(OC)cc3)nc12
19 | 14 | 48 | – | – | – | – | CCCc1nn(C)c2c(=O)[nH]c(-c3ccc(C)cc3)nc12
16 | 11 | 40 | – | – | – | – | CCCc1nn(C)c2c(=O)[nH]c(-c3cccc(Cl)c3)nc12
15 | 10 | 51 | – | – | – | – | CCCc1nn(C)c2c(=O)[nH]c(-c3ccc(Cl)cc3)nc12
17 | 25 | 46 | – | – | – | – | CCCc1nn(C)c2c(=O)[nH]c(-c3ccc(Br)cc3)nc12

Further lines, the compound ahead of its results:

SMILES | IC50 ([1]; Homo sapiens, K562) [µM] | IC50 ([2]; Homo sapiens, COLO 205) [µM] | IC50 ([3]; Homo sapiens, MDA-MB-231) [µM] | inhibition [4] [%] | IC50 ([1]; k562) [µM] | IC50 ([2]; colo 205) [µM] | IC50 ([3]; mda-mb-231) [µM]
Oc1nc(-c2ccc(F)cc2)nc2ccccc12 | 17 | 10 | 20 | 48 | – | – | –
O=c1[nH]c(-c2ccc(Br)cc2)nc2ccccc12 | 21 | 11 | 41 | – | – | – | –
CCCc1nn(C)c2c(=O)[nH]c(-c3cccc([N+](=O)[O-])c3O)nc12 | 21 | 10 | 44 | 61 | – | – | –
O=c1[nH]c(-c2ccc([N+](=O)[O-])cc2)nc2ccccc12 | 20 | 23 | 37 | – | 19 | 12 | 42
Cc1ccc(C(=O)Nc2ccc(S(=O)(=O)O)c3cc(S(=O)(=O)O)cc(S(=O)(=O)O)c23)cc1NC(=O)c1cccc(NC(=O)Nc2cccc(C(=O)Nc3cc(C(=O)Nc4ccc(S(=O)(=O)O)c5cc(S(=O)(=O)O)cc(S(=O)(=O)O)c45)ccc3C)c2)c1 | – | – | – | 79 | – | – | –
CCCc1nn(C)c2c(=O)[nH]c(-c3cccc(Br)c3)nc12 | 24 | 12 | 38 | 59 | – | – | –
CCCc1nn(C)c2c(=O)[nH]c(-c3ccc(O)c(OC(F)F)c3)nc12 | 15 | 7 | 25 | 63 | – | – | –
COc1ccc(-c2nc(O)c3ccccc3n2)cc1 | 24 | 8 | 28 | – | – | – | –
O=c1[nH]c(-c2cccc(Cl)c2)nc2ccccc12 | 18 | 12 | 41 | – | – | – | –
COc1ccc2c(c1)[nH]c1c(C)nccc12 [HARMINE] | 14 | 8 | 32 | – | – | – | –
